Measured values reported in PubChem BioAssay AID1963868 (Molecular Pharmacology Branch, DTP, NCI, 2024).

Tested on: KRAS PDC tumor spheroids (HUVEC+MSC), viability
Assay: Anticancer human tumor 254851-301-R-J1-PDC patient-derived colon carcinoma cell line growth inhibition [KRAS2]
Conditions: for IC50: curve of first compound; for viability, T/C: stronger effect = lower value
Text: Multicellular complex tumor spheroid response to RAS pathway inhibitors in combination with a targeted agents in patient-derived cell lines with oncogenic KRAS variants from multiple cancer types
A high-throughput screen of multi-cell type tumor spheroids was designed to identify active combinations of targeted small molecules and KRAS pathway inhibitors. Complex spheroids include a stromal component modeled by human endothelial cells (HUVEC) and fibroblasts modeled by human mesenchymal stem cells (MSCs). The concentration ranges selected for each drug and investigational agent were based upon clinically achievable concentrations if the clinical Cmax of the agent was known.
Compounds. The drugs and investigational agents: BI-3406 (NSC825286), BAY-293 (NSC824723), batoprotafib (TNO155; NSC825523), sotorasib (AMG 510; NSC818433), MRTX1257 (NSC819558), elimusertib (BAY 1895344; NSC800525), molibresib (GSK525762; NSC774829), temuterkib (LY3214996; NSC803410), venetoclax (NSC766270), alisertib (NSC759677), olaparib (NSC753686), talazoparib (NSC767125), erdafitinib (NSC781556), ipatasertib (NSC767898), cabozantinib (NSC761068), nintedanib (NSC756659), abemaciclib (NSC768073), docetaxel (NSC628503), trametinib (NSC758246), and sapanisertib (NSC764658) were obtained from the National Cancer Institute (NCI) Developmental Therapeutics Program Chemical Repository. The FDA-approved anticancer drug set is available from the Developmental Therapeutics Program. […] The stock solutions were prepared in dimethyl sulfoxide (DMSO, Sigma-Aldrich, St. Louis, MO, cat. D2650) at 800-fold the tested concentration and stored at -70 degrees C prior to their use. All drugs and investigational agents were tested over a range starting from a high concentration at or near the clinical Cmax and decreasing in half-log increments. If the clinical Cmax for an agent had not been determined, the highest concentration tested was 10 microM.
Cell Culture. All cells were maintained in an incubator at 37 degrees C and 5% CO2 with 95% humidity. The PDC lines were cultured according to standard operating procedures established by the NCI PDMR (https://pdmr.cancer.gov/sops/default.htm). Briefly, all PDCs were thawed and cultured in Matrigel-coated flasks prepared with a working solution of 1X Ham's F-12 nutrient mix, without supplementation (Invitrogen, Waltham, MA, cat. 11765054), 100 U/mL penicillin-streptomycin (Invitrogen, cat. 15140122), and 2.5% Matrigel (Corning Inc., Corning, NY, cat. 354248) for the first three passages. All PDCs were cultured in complete DMEM/F-12 media containing advanced DMEM/F-12 (Invitrogen, cat. 12634028), 4.9% defined fetal bovine serum, heat inactivated (HyClone Laboratories Inc., Logan, UT, cat. SH30070.03HI), 389 ng/mL hydrocortisone (Sigma-Aldrich, cat. H4001), 9.7 ng/mL human EGF recombinant protein (Invitrogen, cat. PHG0313), 23.4 microg/mL adenine (Sigma-Aldrich, cat. A2786), 97.3 U/mL penicillin-streptomycin (Invitrogen, cat. 15140122), 1.9 mM L-glutamine (Invitrogen, cat. 25030081), and 9.7 microM Y-27632 dihydrochloride (Tocris Bioscience, Bristol, United Kingdom, cat. 1254). The PDCs were cultured in complete DMEM/F12 media without 9.7 microM Y-27632 dihydrochloride for at least two passages prior to the screen. The established cell line HOP-62 was cultured in RPMI 1640 medium, HEPES (Invitrogen, cat. 22400105) with 10% defined fetal bovine serum (HyClone Laboratories Inc., cat. SH30070.03) and 2 mM L-glutamine (Invitrogen, cat. 25030081). The pooled donor HUVEC were cultured in endothelial cell growth medium 2 (PromoCell, Heidelberg, Germany, cat. C-22011) and the hMSC were cultured in mesenchymal stem cell growth medium 2 (PromoCell, cat. C-28009). For all experiments, HUVEC and hMSC were used at passages </=5, while the malignant cell lines were used at passages </=15. […]

[1] = second compound 0.1 µM, first compound 0.0316 µM
[2] = second compound 0.1 µM, first compound 0.1 µM
[3] = second compound 0.1 µM, first compound 0.316 µM
[4] = second compound 0.1 µM, first compound 1 µM
[5] = second compound 0.1 µM, first compound 3.16 µM
[6] = second compound 0.1 µM, first compound 10 µM
[7] = second compound 0.316 µM, first compound 0.0316 µM
[8] = second compound 0.316 µM, first compound 0.1 µM
[9] = second compound 0.316 µM, first compound 0.316 µM
[10] = second compound 0.316 µM, first compound 1 µM
[11] = second compound 0.316 µM, first compound 3.16 µM
[12] = second compound 0.316 µM, first compound 10 µM
[13] = second compound 1 µM, first compound 0.0316 µM
[14] = second compound 1 µM, first compound 0.1 µM
[15] = second compound 1 µM, first compound 0.316 µM
[16] = second compound 1 µM, first compound 1 µM
[17] = second compound 1 µM, first compound 3.16 µM
[18] = second compound 1 µM, first compound 10 µM
[19] = second compound 3.16 µM, first compound 0.0316 µM
[20] = second compound 3.16 µM, first compound 0.1 µM
[21] = second compound 3.16 µM, first compound 0.316 µM
[22] = second compound 3.16 µM, first compound 1 µM
[23] = second compound 3.16 µM, first compound 3.16 µM
[24] = second compound 3.16 µM, first compound 10 µM
[25] = second compound 10 µM, first compound 0.0316 µM
[26] = second compound 10 µM, first compound 0.1 µM
[27] = second compound 10 µM, first compound 0.316 µM
[28] = second compound 10 µM, first compound 1 µM
[29] = second compound 10 µM, first compound 3.16 µM
[30] = second compound 10 µM, first compound 10 µM
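Further: spheroids exposed to compounds for seven days before readout.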
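Wherever viability, T/C is given: 100% = DMSO vehicle control luminescence of the spheroids.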

Structure (SMILES)	IC50 (second compound 0.1 µM) [µM]	IC50 (second compound 0.316 µM) [µM]	IC50 (second compound 1 µM) [µM]	IC50 (second compound 3.16 µM) [µM]	IC50 (second compound 10 µM) [µM]	viability, T/C [1] [%]	viability, T/C [2] [%]	viability, T/C [3] [%]	viability, T/C [4] [%]	viability, T/C [5] [%]	viability, T/C [6] [%]	viability, T/C [7] [%]	viability, T/C [8] [%]	viability, T/C [9] [%]	viability, T/C [10] [%]	viability, T/C [11] [%]	viability, T/C [12] [%]	viability, T/C [13] [%]	viability, T/C [14] [%]	viability, T/C [15] [%]	further results
Cn1nccc1Nc1nccc(-c2cc3c(s2)C(C)(C)N(CCN2CCOCC2)C3=O)n1 + COc1cc2nc(C)nc(NC(C)c3cc(N)cc(C(F)(F)F)c3)c2cc1OC1CCOC1	1.97	1.81	1.53	0.564	0.445	101	97	82.6	71.5	35.9	3.63	98.4	83.2	77.2	74.3	29.1	3.95	85.5	86.7	72.7	viability, T/C [16]: 70%; viability, T/C [17]: 17.6%; viability, T/C [18]: 4.11%; viability, T/C [19]: 87.8%; viability, T/C [20]: 80.2%; viability, T/C [21]: 66.5%; viability, T/C [22]: 35%; viability, T/C [23]: 4.08%; viability, T/C [24]: 2.21%; viability, T/C [25]: 72.2%; viability, T/C [26]: 71.2%; viability, T/C [27]: 56.9%; viability, T/C [28]: 31.1%; viability, T/C [29]: 2.79%; viability, T/C [30]: 1.54%
CCNC(=O)CC1N=C(c2ccc(Cl)cc2)c2cc(OC)ccc2-n2c(C)nnc21 (stereo not given) + C=CC(=O)N1CCN(c2nc(=O)n(-c3c(C)ccnc3C(C)C)c3nc(-c4c(O)cccc4F)c(F)cc23)C(C)C1	> 10	> 10	> 10	> 10	> 10	107	99.6	96.8	91	81	77.3	95	86.4	95.2	76.2	82.2	65.1	80.3	94.8	86.3	viability, T/C [16]: 80.7%; viability, T/C [17]: 89.3%; viability, T/C [18]: 74.2%; viability, T/C [19]: 72.3%; viability, T/C [20]: 76.1%; viability, T/C [21]: 97%; viability, T/C [22]: 84.5%; viability, T/C [23]: 79.9%; viability, T/C [24]: 59.4%; viability, T/C [25]: 105%; viability, T/C [26]: 96.2%; viability, T/C [27]: 95.6%; viability, T/C [28]: 91.2%; viability, T/C [29]: 86%; viability, T/C [30]: 67.8%
